# Test system: Synoviocytes derived from a rheumatoid arthritis patient
# Test: Growth of synoviocytes measured by MTT assay
# Assay type: cell-based, human
# Settings: genistein 1.5, 3, 6, 12.5 and 25 μg/ml, 7 days culture, FIG. 2
# Protocol: That is, synoviocytes obtained from a rheumatoid arthritis patient by surgery were minced, followed by enzyme treatment in RPMI1640 medium containing collagenase (4 mg/ml) at 37° C. for 4 hours to loosen the cells. The obtained cells were cultured in a growth medium (RPMI1640 containing 10% fetal calf serum) in a humidified CO2 incubator (5% CO2), with replacement of the growth medium at intervals of 3 to 4 days. When the cells grew to be subconfluent, the cells were subcultured at the ratio of 1:2 to 1:4 (that is, the cells were collected, transferred into other culture flasks in 1/2 to 1/4 portions and cultured in a fresh growth medium). Subculturing was repeated for 7 to 15 passages and the resulting cells were used in the following experiments.
# The growth of synoviocytes was measured by the assay using MTT [3,(4,5-dimethylthiazol-2-yl)2,5-diphenyl-tetrazolium bromide]
# Synoviocytes derived from a rheumatoid arthritis patient which were prepared in the same manner as in Example 1 were seeded on a 96-well microplate in an amount of 5×10^3 cells/well and precultured in the growth medium at 37° C. overnight. […] Then, 100 μl of dimethyl sulfoxide was added to dissolve the fomazan complex and the absorbance at the wavelength of 590 nm was measured with 96-well multiscanner Immno-Mini (Japan Inter Med) as the degree of cell growth. […]
smiles,measurement,value
O=c1c(-c2ccc(O)cc2)coc2cc(O)cc(O)c12 [genistein],"growth of synoviocytes (absorbance at 590 nm, MTT)",inhibited in a manner dependent on the genistein concentration

# Reference: US20060188501A1, “Diagnostic and therapeutic agents for rheumatoid arthritis” (Kyowa Hakko Kogyo Co., Ltd., priority 2000, published 2006)
